Experimental data published in patent US11427548B2 (Arvinas Operations, Inc., priority 2015, dated 2022).
Like-named read-outs stand apart in the source and are kept apart here.

Biological target: T1, Androgen Receptor (Homo sapiens, UniProt P10275)
T1 construct: endogenous in cells; host or cells: VCaP cells
T1 sequence (P10275 1-920): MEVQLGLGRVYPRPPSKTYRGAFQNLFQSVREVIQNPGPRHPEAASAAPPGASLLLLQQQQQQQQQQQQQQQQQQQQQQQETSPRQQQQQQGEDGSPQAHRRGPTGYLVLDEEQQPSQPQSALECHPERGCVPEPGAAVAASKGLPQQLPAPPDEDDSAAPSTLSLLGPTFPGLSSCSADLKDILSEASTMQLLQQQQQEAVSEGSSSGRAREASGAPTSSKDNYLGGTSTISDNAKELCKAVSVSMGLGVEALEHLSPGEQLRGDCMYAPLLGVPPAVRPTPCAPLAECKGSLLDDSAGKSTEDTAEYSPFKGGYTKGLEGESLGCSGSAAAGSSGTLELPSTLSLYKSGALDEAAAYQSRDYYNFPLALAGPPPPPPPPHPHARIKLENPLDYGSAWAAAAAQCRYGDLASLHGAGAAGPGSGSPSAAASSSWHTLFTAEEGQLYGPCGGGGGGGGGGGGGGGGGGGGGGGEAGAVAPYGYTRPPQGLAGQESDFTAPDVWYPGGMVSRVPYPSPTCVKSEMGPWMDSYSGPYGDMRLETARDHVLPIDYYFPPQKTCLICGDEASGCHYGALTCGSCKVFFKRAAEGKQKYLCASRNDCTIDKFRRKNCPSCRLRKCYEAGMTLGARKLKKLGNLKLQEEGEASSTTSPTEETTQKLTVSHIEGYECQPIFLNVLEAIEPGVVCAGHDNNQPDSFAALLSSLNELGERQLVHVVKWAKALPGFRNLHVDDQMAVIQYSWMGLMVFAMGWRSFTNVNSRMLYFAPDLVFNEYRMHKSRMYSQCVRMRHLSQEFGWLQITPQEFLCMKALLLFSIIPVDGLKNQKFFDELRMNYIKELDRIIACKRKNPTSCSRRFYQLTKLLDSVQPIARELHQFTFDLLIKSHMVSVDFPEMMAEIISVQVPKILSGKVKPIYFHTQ
Assay: Androgen Receptor ELISA assay (PathScan AR ELISA) in VCaP cells: AR degradation, Dmax and DC50
Type: cell-based
In short: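 VCaP cells in phenol red-free RPMI with 5% charcoal-stripped FBS were grown at least 3 days, then given compound as 7 half-log doses in 0.1% DMSO with 0.1 nM R1881 for 24 h. Lysates went into a sandwich AR ELISA with TMB read at 450 nm.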

[1] = VCaP cells; Table 36; read-out: VCaP DC50
[2] = VCaP, read-out: VCaP Dmax (%), VCaP cells; Table 36
[3] = VCaP cells; Table 35; read-out: VCaP DC50
[4] = VCaP, VCaP cells; Table 35; read-out: VCaP Dmax (%)
[5] = VCaP, VCaP cells; Table 36; read-out: VCaP Dmax (%)

`Cc1ncsc1-c1ccc([C@H](C)NC(=O)[C@@H]2C[C@@H](O)CN2C(=O)[C@@H](NC(=O)CN2CCN(CCCc3ccc(C(=O)N[C@H]4C(C)(C)[C@H](Oc5ccc(C#N)c(C#N)c5)C4(C)C)cc3)CC2)C2COC2)cc1` [Example 746, (2S,4R)-1-((S)-2-(2-(4-(3-(4-(((1r,3r)-3-(3,4-dicyanophenoxy)-2,2,4,4-tetramethylcyclobutyl)carbamoyl)phenyl)propyl)piperazin-1-yl)acetamido)-2-(oxetan-3-yl)acetyl)-4-hydroxy-N-((S)-1-(4-(4-methylthiazol-5-yl)phenyl)ethyl)pyrrolidine-2-carboxamide] was tested, and the DC50 [1] was > 501 nM and the Dmax [2] was < 25%.
With `Cc1nccn1-c1ccc([C@H](C)NC(=O)[C@@H]2C[C@@H](O)CN2C(=O)[C@@H](NC(=O)COCCOc2ccc(-c3ccc(C(=O)N[C@H]4C(C)(C)[C@H](Oc5ccc(C#N)c(Cl)c5)C4(C)C)cc3)cc2)C(C)(C)C)cc1` [Example 449] the DC50 [3] was < 50 nM and the Dmax [4] was > 71%.
With `Cc1ncsc1-c1ccc([C@H](C)NC(=O)[C@@H]2C[C@@H](O)CN2C(=O)[C@H](c2cc(OCCN3CCN(c4ccc(C(=O)N[C@H]5C(C)(C)[C@H](Oc6ccc(C#N)c(Cl)c6)C5(C)C)cn4)CC3)no2)C(C)C)cc1` [Example 658, N-((1r,3r)-3-(3-chloro-4-cyanophenoxy)-2,2,4,4-tetramethylcyclobutyl)-6-(4-(2-((5-((S)-1-((2S,4R)-4-hydroxy-2-(((S)-1-(4-(4-methylthiazol-5-yl)phenyl)ethyl)carbam-oyl)pyrrolidin-1-yl)-3-methyl-1-oxobutan-2-yl)isoxazol-3-yl)oxy)ethyl)piperazin-1-yl)nicotinamide] the DC50 [1] was > 501 nM and the Dmax [5] was < 25%.
In the case of `Cc1ncsc1-c1ccc(CNC(=O)[C@@H]2C[C@@H](O)CN2C(=O)[C@H](C(C)C)N2Cc3ccccc3C2=O)c(N2CCN(CCCc3ccc(C(=O)N[C@H]4C(C)(C)[C@H](Oc5ccc(C#N)c(C(F)(F)F)c5)C4(C)C)cc3)CC2)c1` [Example 753, (2S,4R)-N-(2-(4-(3-(4-(((1r,3r)-3-(4-cyano-3-(trifluoromethyl)phenoxy)-2,2,4,4-tetramethylcyclobutyl)carbamoyl)phenyl)propyl)piperazin-1-yl)-4-(4-methylthiazol-5-yl)benzyl)-4-hydroxy-1-((S)-3-methyl-2-(1-oxoisoindolin-2-yl)butanoyl)pyrrolidine-2-carboxamide], the DC50 [1] was < 50 nM and the Dmax [5] was 51 to 70%.
In the case of `CC(C)(C)[C@H](NC(=O)COCCCCOc1ccc(-c2ccc(N3C(=S)N(c4ccc(C#N)c(Cl)c4)C(=O)C3(C)C)cc2)cc1)C(=O)N1C[C@H](O)C[C@H]1C(=O)NCc1ccc(-c2cnco2)cc1` [Example 94, (2S,4R)-1-[(2S)-2-{2-[4-(4-{4-[3-(3-chloro-4-cyanophenyl)-5,5-dimethyl-4-oxo-2-sulfanylideneimidazolidin-1-yl]phenyl}phenoxy)butoxy]acetamido}-3,3-dimethylbutanoyl]-4-hydroxy-N-{[4-(1,3-oxazol-5-yl)phenyl]methyl}pyrrolidine-2-carboxamide], the Dmax (VCaP, read-out: VCaP Dmax (%)) was > 71% and the DC50 (read-out: VCaP DC50; concentration that caused 50% Androgen Receptor degradation, VCaP cells (Table 32)) was < 50 nM.
In the case of `Cc1ncsc1-c1ccc(CNC(=O)[C@@H]2C[C@@H](O)CN2C(=O)[C@@H](NC(=O)CS(=O)(=O)CCOc2ccc(-c3ccc(C(=O)N[C@H]4C(C)(C)[C@H](Oc5ccc(C#N)c(Cl)c5)C4(C)C)cc3)cc2)C(C)(C)C)cc1` [Example 472], the DC50 [3] was < 50 nM and the Dmax [4] was > 71%.
`CC(C)(C)[C@H](NC(=O)COCCCCCNc1ccc(C(=O)N[C@H]2C(C)(C)[C@H](Oc3ccc(C#N)c(Cl)c3)C2(C)C)cc1)C(=O)N1C[C@H](O)C[C@H]1C(=O)NCc1ccc(C(=O)O)cc1` [Example 512] gave a DC50 [3] of 51 to 500 nM and a Dmax [4] of 51 to 70%.
In the case of `Cc1ncsc1-c1ccc([C@H](C)NC(=O)C2C[C@@H](O)CN2C(=O)C(NC(=O)CCC(F)(F)CN2CCN(c3ccc(C(=O)N[C@H]4C(C)(C)[C@H](Oc5ccc(C#N)c(Cl)c5)C4(C)C)cn3)CC2)C(C)(C)C)cc1` (stereo partly drawn) [Example 799, N-((1r,3r)-3-(3-chloro-4-cyanophenoxy)-2,2,4,4-tetramethylcyclobutyl)-6-(4-(2,2-difluoro-5-(((S)-1-((2S,4R)-4-hydroxy-2-(((S)-1-(4-(4-methylthiazol-5-yl)phenyl)ethyl)carbamoyl)pyrrolidin-1-yl)-3,3-dimethyl-1-oxobutan-2-yl)amino)-5-oxopentyl)piperazin-1-yl)nicotinamide], the DC50 [1] was < 50 nM and the Dmax [5] was 51 to 70%.
`Cc1ncsc1-c1ccc([C@H](C)NC(=O)[C@@H]2C[C@@H](O)CN2C(=O)[C@@H](C(C)C)n2cc(-c3ccnc(OC4CN(c5ncc(C(=O)NC6C(C)(C)C(Oc7ccc(C#N)c(Cl)c7)C6(C)C)cn5)C4)c3)cn2)cc1` (stereo partly drawn) [Example 603, N-(3-(3-chloro-4-cyanophenoxy)-2,2,4,4-tetramethylcyclobutyl)-2-(3-((4-(1-((R)-1-((2S,4R)-4-hydroxy-2-(((S)-1-(4-(4-methylthiazol-5-yl)phenyl)ethyl)carbam-oyl)pyrrolidin-1-yl)-3-methyl-1-oxobutan-2-yl)-1H-pyrazol-4-yl)pyridin-2-yl)oxy)azetidin-1-yl)pyrimidine-5-carboxamide] was tested, and the DC50 [1] was > 501 nM and the Dmax [2] was < 25%.
In the case of `CC(C)(C)[C@H](NC(=O)COCCCCOc1ccc(-c2ccc(N3C(=S)N(c4cnc(C#N)c(Cl)c4)C(=O)C3(C)C)cc2)cc1)C(=O)N1C[C@H](O)C[C@H]1C(=O)NCc1ccc(-c2cnco2)cc1` [Example 191, (2S,4R)-1-[(2S)-2-{2-[4-(4-{4-[3-(5-chloro-6-cyanopyridin-3-yl)-5,5-dimethyl-4-oxo-2-sulfanylideneimidazolidin-1-yl]phenyl}phenoxy)butoxy]acetamido}-3,3-dimethylbutanoyl]-4-hydroxy-N-{[4-(1,3-oxazol-5-yl)phenyl]methyl}pyrrolidine-2-carboxamide], the DC50 (VCaP cells; concentration that caused 50% Androgen Receptor degradation; read-out: VCaP DC50) was < 50 nM and the Dmax (VCaP, VCaP cells; highest percentage of Androgen Receptor degradation; read-out: VCaP Dmax (%)) was 51 to 70%.
For `Cc1ncoc1-c1ccc(CNC(=O)[C@@H]2C[C@@H](O)CN2C(=O)[C@@H](NC(=O)COCCCOCCCCOc2ccc(N3C(=S)N(c4ccc(C#N)c(C(F)(F)F)c4)C(=O)C3(C)C)cc2)C(C)(C)C)cc1` [Example 35, (2S,4R)-1-[(2S)-2-(2-{3-[4-(4-{3-[4-cyano-3-(trifluoromethyl)phenyl]-5,5-dimethyl-4-oxo-2-sulfanylideneimidazolidin-1-yl}phenoxy)butoxy]propoxy}acetamido)-3,3-dimethylbutanoyl]-4-hydroxy-N-{[4-(4-methyl-1,3-oxazol-5-yl)phenyl]methyl}pyrrolidine-2-carboxamide], the Dmax (VCaP, read-out: VCaP Dmax (%)) was 51 to 70% and the DC50 (read-out: VCaP DC50; concentration that caused 50% Androgen Receptor degradation, VCaP cells) was < 50 nM.
In the case of `Cc1ncsc1-c1ccc([C@H](C)NC(=O)[C@@H]2C[C@@H](O)CN2C(=O)[C@@H](NC(=O)CN2CCO[C@@H](CN3CCO[C@H](COc4ccc(N5C(=O)N(c6ccc(C#N)c(C(F)(F)F)c6)C(=O)C5(C)C)cc4)C3)C2)C(C)(C)C)cc1` [Example 676, (2S,4R)-1-((S)-2-(2-((S)-2-(((S)-2-((4-(3-(4-cyano-3-(trifluoromethyl)phenyl)-5,5-dimethyl-4-oxo-2-thioxoimidazolidin-1-yl)phenoxy)methyl)mor-pholino)methyl)mor-phpolino)acetamido)-3,3-dimethylbutanoyl)-4-hydroxy-N-((S)-1-(4-(4-methylthiazol-5-yl)phenyl)ethyl)pyrrolidine-2-carboxamide], the DC50 (read-out: VCaP DC50; VCaP cells; Table 36) was > 501 nM.
For `Cc1ncsc1-c1ccc([C@H](C)NC(=O)[C@@H]2C[C@@H](O)CN2C(=O)[C@@H](NC(=O)CN[C@H]2C[C@H](N3CCN(c4ccc(C(=O)N[C@H]5C(C)(C)[C@H](Oc6ccc(C#N)c(Cl)c6)C5(C)C)cn4)CC3)C2)C(C)(C)C)cc1` [Example 860, N-((1r,3R)-3-(3-chloro-4-cyanophenoxy)-2,2,4,4-tetramethylcyclobutyl)-6-(4-((1S,3R)-3-((2-(((S)-1-((2S,4R)-4-hydroxy-2-(((S)-1-(4-(4-methylthiazol-5-yl)phenyl)ethyl)carbamoyl)pyrrolidin-1-yl)-3,3-dimethyl-1-oxobutan-2-yl)amino)-2-oxoethyl)amino)cyclobutyl)piperazin-1-yl)nicotinamide], the DC50 [1] was < 50 nM and the Dmax (VCaP, read-out: VCaP Dmax (%)) was 51 to 70%.
In the case of `CC(C)(C)[C@H](NC(=O)COCCOc1ccc(-c2ccc(C(=O)N[C@H]3C(C)(C)[C@H](Oc4ccc(C#N)c(Cl)c4)C3(C)C)cc2)cc1)C(=O)N1C[C@H](O)C[C@H]1C(=O)NCc1ccc(Cl)cc1` [Example 573], the DC50 [3] was > 501 nM and the Dmax [4] was 51 to 70%.
